Measurements published in patent publication US6964983B2, “Compounds that modulate PPAR activity and methods for their preparation” (Warner-Lambert Company, LLC, priority 2002, dated 2005).
One block for each molecule: values may come before it.

Assays:
hPPARβ = target: T1, hPPARβ (Homo sapiens, UniProt Q03181); experiment: Transient transfection assay in HepG2 cells, Gal4-hPPARβ chimeric receptor, luciferase reporter; type: cell-based; details: Hep G2-hBeta EC50, 24 hours incubation; read-out: EC50β nM (Group)
T1 sequence (Q03181 171-441 limits assumed): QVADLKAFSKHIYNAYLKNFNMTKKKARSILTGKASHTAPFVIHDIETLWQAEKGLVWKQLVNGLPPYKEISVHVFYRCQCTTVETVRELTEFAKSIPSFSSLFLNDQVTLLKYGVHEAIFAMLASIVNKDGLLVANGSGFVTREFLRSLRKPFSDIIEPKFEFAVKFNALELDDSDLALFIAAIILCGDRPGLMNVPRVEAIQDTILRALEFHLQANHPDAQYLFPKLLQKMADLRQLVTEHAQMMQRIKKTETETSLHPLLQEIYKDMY
Outline: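 HepG2 cells were transiently co-transfected with Gal4-hPPARα or Gal4-hPPARβ chimeras, a UAS-E1B luciferase reporter and a β-gal normalisation plasmid. After re-plating, cells were treated with compound at 50 pM–50 μM for 24 h at 37°C. EC50 values were derived from luciferase read-out normalised to β-gal.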

hPPARα = target: T2, hPPARα (Homo sapiens, UniProt Q07869); experiment: Transient transfection assay in HepG2 cells, Gal4-hPPARα chimeric receptor, luciferase reporter; type: cell-based; details: Hep G2-hAlpha EC50, 24 hours incubation; read-out: EC50α nM (Group)
T2 sequence (Q07869 200-468 limits assumed): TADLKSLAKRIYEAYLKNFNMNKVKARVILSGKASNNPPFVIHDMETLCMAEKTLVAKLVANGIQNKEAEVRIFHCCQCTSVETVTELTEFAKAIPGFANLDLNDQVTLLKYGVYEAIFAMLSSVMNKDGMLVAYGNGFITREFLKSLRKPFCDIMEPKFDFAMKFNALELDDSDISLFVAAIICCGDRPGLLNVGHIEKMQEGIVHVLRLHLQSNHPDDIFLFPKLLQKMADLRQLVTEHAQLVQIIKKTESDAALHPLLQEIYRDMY
Experimental: 1. Test A. Transient Transfections Assay using the HepG2 Hepatoma Cell Line.
HepG2 cells were transiently transfected with an expression plasmids encoding hPPARα, hPPARβ or mPPARγ chimeric receptors and a reporter containing the yeast upstream activating sequence (UAS) upstream of the viral E1B promoter controlling a luciferase reporter gene. In addition, the plasmid pRSVβ-gal was used to control for transfection efficiency. HepG2 cells were grown in DMEM supplemented with 10% FBS and 1 μM non-essential amino acid. On the first day, cells were split into 100 mm dishes at 2.5×10^6/dish and incubated overnight at 37° C./5% CO2. On the second day the cells were transiently transfected with plasmid DNA encoding a chimeric receptor, the luciferase reporter gene; and β-gal. For each 100 mm dish, 15 μg of lucifease reporter (PG5E1b) DNA, 15 μg of Gal4-PPAR chimeric receptor DNA, and 1.5 μg of β-gal plasmid DNA were mixed with 1.4 ml of opti-MEM in the tube. 28 μl of LipoFectamine-2000 reagent was added to 1.4 ml of opti-MEM in the tube, and incubate for 5 min at RT. The diluted Lipofectamine-2000 reagent was combined with the DNA mixture, and incubate for 20 min at RT. After fresh medium was added to each 100 mm dish of cells, 2.8 ml of Lipofectamine2000-DNA mixture was added dropwise to the 100 mm dish containing 14 ml of medium, and incubate 37° C. overnight. On day three cells were trypsinized off the 100 mm dishes and re-plated on 96 well plates. Cells were plated at 2.5×10^4 cells per well in 150 μl of media and 50 μl of compound diluted by media was added. The test compound added were in the range from 50 μM to 50 pM. After addition of compounds, the plates were incubated at 37° C. for 24 hours. Subsequently cells were washed with once with 100 μl of PBS, lysed, and processed for measuring luciferase and β-gal activity using Dual-Light luciferase kit from Tropix ®, according to the manufacturer's recommendations, on an EG&G Bethold MicroLumat LB96P luminometer. EC50 values were obtained using the GraphPad Prism™ program.

hApoA1 transgenic mouse = experiment: Lipid concentrations in the hApoA1 transgenic mouse; type: in vivo; details: 30 mg/kg/day, oral gavage
Experimental: B. Effect of PPAR Modulators on Lipid and Human Apoprotein A1 Concentrations in the hApoA1 Transgenic Mouse
Mice, transgenic for human apoA1, were purchased from Jackson laboratories. All animals were allowed normal chow (Ralston-Purina) and water ad libitum in temperature controlled rooms, under a 12-h light, 12-h dark cycle beginning with lights on at 6 AM. During the treatment phase of the study the mice were dosed daily between 6 and 9 AM by oral gavage using a suspension vehicle of 1.5% carboxymethylcellulose plus 0.2 percent Tween-20 (CMC/Tween) containing the specified compounds. Control animals received vehicle alone. Vehicle volume represented 0.25 percent of body weight. Under anesthesia, tail blood was obtained weekly in the morning at the indicated days of study. At termination, tissue samples (liver, intestine, fat, and muscle) were taken to study effects on genes effecting lipid metabolism. Each of the compounds of the present invention that were tested effected a significant increase in HDL over the values observed for the control animals. […] For instance, Example 4 raised HDL-c 97% and lowered triglycerides 65% relative to the control population, Example 6 raised HDL-c 24% and lowered triglycerides 59% relative to the control population, and Example 3 raised HDL-c 9% and lowered triglycerides 70% relative to the control population.

[1] = tested on: diabetic cynomolgus monkeys; experiment: Eight-week rising-dose treatment of diabetic (type II) cynomolgus monkeys; type: in vivo; details: for Exogenous Insulin Requirement / Leptin (plasma, ELISA): Diabetic Treated; for Diabetic Monkey Mean Body Weight: treated group (Txt)
Experimental: (§1) C. Effect of Compounds of the Invention on Insulin Resistant or Diabetic Cynomolgus Monkeys
(§2) Cynomolgus monkeys that were either insulin resistant or diabetic (type II) were treated for eight weeks with [5-Methoxy-2-methyl-4-(4′-trifluoromethyl-biphenyl-4-ylmethylsulfanyl)-phenoxy]-acetic acid in a rising dose fashion (0.1 to 1 mg/kg). Plasma was sampled bi-weekly and analyzed for glycemics and leptin. Body weight was also measured at various time points across the study. The diabetic monkey mean body weight data is presented in Table 2 and the insulin resistant monkey mean body weight data is presented in Table 3.
The amount of exogenous insulin the diabetic monkeys received to maintain proper glucose levels, the exogenous insulin requirement, is also presented in Table 4 as baseline values vs. 8-week treatment. […] A reduction in exogenous insulin requirements is a measure of improved insulin sensitivity and glucose control.

[2] = tested on: insulin resistant cynomolgus monkeys; experiment: Eight-week rising-dose treatment of insulin resistant cynomolgus monkeys; type: in vivo; details: for Leptin (plasma, ELISA): Insulin Resistant Treated; for Insulin Resistant Monkey Mean Body Weight: treated group (Txt)
Experimental: as §1
as §2, with “3. […]” for “3.”

[3] = Post-Treatment (8-week treatment)
[4] = 2 wk, rising dose 0.1 to 1 mg/kg
[5] = 8 wk, rising dose 0.1 to 1 mg/kg

- EC50 (hPPARβ): < 300 nM
- EC50 (hPPARα): 2000 to 5000 nM
- melting point: 140 to 141 °C
Compound: Cc1cc(SCc2ccc(-c3ccc(C(F)(F)F)cc3)cc2)ccc1OCC(=O)O [Example 3, [2-Methyl-4-(4′-trifluoromethyl-biphenyl-4-ylmethylsulfanyl)-phenoxy]-acetic acid]
- lowered triglycerides relative to the control population (hApoA1 transgenic mouse): 70%
- raised HDL-c relative to the control population (hApoA1 transgenic mouse): 9%

- EC50 (hPPARβ): < 300 nM
- EC50 (hPPARα): < 300 nM
- melting point: 170 to 171 °C
Compound: COc1cc(OCC(=O)O)c(C)cc1SCc1ccc(-c2ccc(C(F)(F)F)cc2)cc1 [Example 4, [5-Methoxy-2-methyl-4-(4′-trifluoromethyl-biphenyl-4-ylmethylsulfanyl)-phenoxy]-acetic acid]
- lowered triglycerides relative to the control population (hApoA1 transgenic mouse): 65%
- raised HDL-c relative to the control population (hApoA1 transgenic mouse): 97%

Compound: Cc1cc(SCc2ccc(-c3ccc(Cl)c(C(F)(F)F)c3)cc2)ccc1OCC(=O)O [Example 6, [4-(4′-Chloro-3′-trifluoromethyl-biphenyl-4-ylmethylsulfanyl)-2-methyl-phenoxy]-acetic acid]
- lowered triglycerides relative to the control population (hApoA1 transgenic mouse): 59%
- raised HDL-c relative to the control population (hApoA1 transgenic mouse): 24%

Compound: COc1cc(OCC(=O)O)c(C)cc1SCc1ccc(-c2ccc(C(F)(F)F)cc2)cc1 [[5-Methoxy-2-methyl-4-(4′-trifluoromethyl-biphenyl-4-ylmethylsulfanyl)-phenoxy]-acetic acid]
- Exogenous Insulin Requirement [1, 3]: 18 ± 4 u/day
- Leptin (plasma, ELISA) [1, 3]: 10.89 ± 2.7 ng/mL
- Exogenous Insulin Requirement ([1]; Pre-Treatment (baseline)): 66 ± 16 u/day
- Leptin (plasma, ELISA) ([1]; Pre-Treatment (baseline)): 7.22 ± 0.93 ng/mL
- effect on plasma leptin values ([1]; diabetic obese cynomolgus monkeys, treated vs control, baseline vs 8 weeks): lesser increase in plasma leptin values
- Diabetic Monkey Mean Body Weight [1, 4]: 8.75 kg
- Diabetic Monkey Mean Body Weight ([1]; 5 wk, rising dose 0.1 to 1 mg/kg): 8.37 kg
- Diabetic Monkey Mean Body Weight ([1]; 7 wk, rising dose 0.1 to 1 mg/kg): 8.08 kg
- Diabetic Monkey Mean Body Weight [1, 5]: 7.8 kg
- Diabetic Monkey Mean Body Weight ([1]; Mean Baseline): 8.87 kg
- Diabetic Monkey Mean Body Weight ([1]; −4 wk, before treatment): 8.91 kg
- Diabetic Monkey Mean Body Weight ([1]; −7 wk, before treatment): 8.84 kg
- Leptin (plasma, ELISA) [2, 3]: 5.73 ± 2.14 ng/mL
- Leptin (plasma, ELISA) ([2]; Pre-Treatment (baseline)): 7.33 ± 1.16 ng/mL
- effect on plasma leptin values ([2]; insulin resistant obese cynomolgus monkeys, treated vs control, baseline vs 8 weeks): lesser increase in plasma leptin values
- Insulin Resistant Monkey Mean Body Weight [2, 4]: 5.26 kg
- Insulin Resistant Monkey Mean Body Weight ([2]; 4 wk, rising dose 0.1 to 1 mg/kg): 5.04 kg
- Insulin Resistant Monkey Mean Body Weight ([2]; 6 wk, rising dose 0.1 to 1 mg/kg): 4.91 kg
- Insulin Resistant Monkey Mean Body Weight [2, 5]: 4.71 kg
- Insulin Resistant Monkey Mean Body Weight ([2]; Mean Baseline): 5.29 kg
- Insulin Resistant Monkey Mean Body Weight ([2]; −4 wk, before treatment): 5.32 kg
- Insulin Resistant Monkey Mean Body Weight ([2]; −7 wk, before treatment): 5.25 kg
